In patent US7326717B2, “Pyrimidine n-oxide compounds for stimulating the growth of keratin fibers and/or reducing loss thereof” (L'Oreal, priority 1930, dated 2008):

How the values were obtained:
[1] = test system: inducible NO-synthase (NOS2); test: Modulation of the induction of NOS2 on normal human keratinocytes (NO-donor activity, nitrite/nitrate measurement); format: cell-based; details: for % inhibition: nitrites and nitrates measured; for NO-donating effect: conclusion from the table
Protocol: The activity of compounds A and A′ on inducible NO-synthase was evaluated in the test described by Heck et al. (J. B. C., Vol. 267, No. 30, 21277-21280, 25 Oct. 1992), test of “Modulation of the induction of NOS2 (Inducible Nitric Oxide Synthase) on normal human keratinocytes”. The aim of this test is to evaluate the final nitrate and nitrite concentration, after stimulation of NO-synthase 2 or application of an NO donor; it is performed by comparison with the stimulation of cytokine-inducible NO-synthase. The final nitrate and nitrite concentration corresponds to the concentration of NO released.
The test is performed on a culture of normal human keratinocytes obtained from samples. The induction of inducible NO-synthase (NOS2) was brought about by the addition of a combination of several cytokines to the culture medium. The test products were applied at three concentrations ranging from […] to 1000 μM.
The following controls were introduced into the test: • A: Positive control (induction of the enzyme on stimulated cells): mixtures of interferon-γ (1000 μ/ml) and of interleukin 1-β (100 μ/ml) corresponding to […]; • B: Basal control of the unstimulated cells (without cytokines), corresponding to […].
To determine the activity of the test products, the amount of stable NO reaction products (nitrites and nitrates) is measured using the “Nitric Colorimetric Assay” kit sold by the company Boehringer under the reference 1756.28.
The compounds were tested at concentrations of 100 μM, 500 μM and 1000 μM in ethanol.

[2] = test system: lysyl-hydroxylase messenger RNA; test: Inhibition of the expression of LH (RT-PCR) in normal human dermal fibroblasts; format: cell-based; details: for inhibition of the expression of lysyl-hydroxylase messenger RNA: human fibroblasts in culture, compound 1′ at 10 μM; for LH/actine ratio: percentage of expression of LH over β-Actin internal standard; for LH/actine ratio / LH/collagen ratio: control = 100, NHDF treated 6 hours; for LH/collagen ratio: percentage of expression of LH relative to collagen messenger RNA
Protocol: Normal human dermal fibroblasts (NHDF) are precultured at high density for 48 hours in MEM199 medium (Gibco) supplemented with 1% foetal calf serum and then treated or not treated with compound 1′ or 1 for 6 hours. The cell carpets are then washed with phosphate-buffered saline (PBS) and then frozen in Tri-reagent medium (Sigma). The total RNAs obtained are extracted with Tri-reagent (Sigma) according to the supplier's protocol. A further extraction is performed using chloroform and the RNAs are then precipitated from isopropanol. After removal of the contaminating traces of DNA by treatment with the DNA-free system (Ambion), a reverse transcription of the RNAs into complementary DNA is performed in the presence of oligo dT and the enzyme superscript II (Gibco).
A pair of primers allowing the amplification of specific LH fragments (516 bp; Mahéet al., 1996, Skin Pharmacol. 9, 177-183) and of specific primers of the sequence of collagen I (420 pb) and β-Actin (500 bp, internal reaction standard) were used for the polymerization chain reaction (PCR) with the PCR Supermix system (Gibco) under the following conditions: 94° C. for 2 minutes and then 25 times (95° C.-1 min, 55° C.-1 min, 72° C.-2 min), the chain reaction being terminated by an elongation cycle of 7 minutes at 72° C.
The amplified fragments are then analysed by electrophoresis on agarose gel (1.5%) in the presence of ethidium bromide. The images were captured on GelPrint 2000i (Biophotonics Corp); the densitometric analyses were obtained using the One D-Scan software (Scanalytics).
The results are expressed as a percentage of expression of LH over the β-Actin internal standard (LH/actine) or relative to the collagen messenger RNA (LH/collagen). A reduction of one or of the two percentages indicates a transcriptional inhibition of the relative expression of lysyl hydroxylase and, by analogy, with the molecule 2-4 DPO, (Mahéet al. 1996, Skin Pharmacol. 9. 177-183) a possible use for limiting the abnormal crosslinking of collagen in alopecia.

lysyl-hydroxylase = details: described in WO 96/09048; cited from earlier work
type L calcium-channel = details: read-out: IC50Ca2+ (concentration that inhibits 50% of the release of Ca2+); cited from earlier work
[3] = 100 μM in ethanol, 100 = cytokine-stimulated control A, 0 = unstimulated control B

| Compound | % inhibition [1, 3] [%] | NO-donating effect [1] | inhibition of the expression of lysyl-hydroxylase messenger RNA [2] | LH/actine ratio [2] [%] | LH/collagen ratio [2] [%] | other results |
| --- | --- | --- | --- | --- | --- | --- |
| Nc1nccc(NCCCCO[N+](=O)[O-])[n+]1[O-] [Compound 1] | 0 | have an NO-donating effect | no inhibitory activity | 123 | 133 | % inhibition ([1]; 500 μM in ethanol, 100 = control A, 0 = control B, NE means no effect): 18.23% |
| Nc1nccc(NCCCCO)[n+]1[O-] [Compound 1′] |  |  | −24% to −36% | 64 | 76 |  |
| Nc1nccc(NCCO[N+](=O)[O-])[n+]1[O-] [Compound 2] | 38.77 | have an NO-donating effect |  |  |  |  |
| Nc1nccc(NCCCO[N+](=O)[O-])[n+]1[O-] [Compound 3] |  | have an NO-donating effect |  |  |  |  |
| Nc1cc[n+]([O-])c(N)n1 [aminexil, 2,4-diaminopyrimidine N-oxide] |  |  |  |  |  | inhibitory activity on the expression of lysyl-hydroxylase (lysyl-hydroxylase): has inhibitory activity on the expression of lysyl-hydroxylase |
| COc1ccc(CCN(C)CCCC(C#N)(c2ccc(OC)c(OC)c2)C(C)C)cc1OC (centres unmarked) [verapamil] |  |  |  |  |  | IC50 (type L calcium-channel): 38 nM |
